Molecular target: T1, MAT2A (Homo sapiens, UniProt P31153)
T1 construct: His6; made in house; host or cells: SF9 insect cells
Assay: MAT2A biochemical assay (colorimetric inorganic phosphate detection, PiColorLock)
Settings: recombinant His6-tagged MAT2A 1 μg/ml; 60 minutes preincubation at 25° C.; L-Met 80 μM, ATP 100 μM; 60 minutes reaction; read at 623 nm; read-out: MAT2A Inhibition Score
How it was run: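 His6-tagged human MAT2A (SF9-expressed, 1 μg/ml) converting L-Met and ATP to SAM in Tris pH 8.0, 50 mM KCl, 15 mM MgCl2, 300 uM EDTA, 0.005% BSA; 60 min at room temperature. Released phosphate detected colorimetrically with malachite green phosphomolybdate. Ten-point, three-fold compound dilution series.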

T1 sequence (P31153 whole entry): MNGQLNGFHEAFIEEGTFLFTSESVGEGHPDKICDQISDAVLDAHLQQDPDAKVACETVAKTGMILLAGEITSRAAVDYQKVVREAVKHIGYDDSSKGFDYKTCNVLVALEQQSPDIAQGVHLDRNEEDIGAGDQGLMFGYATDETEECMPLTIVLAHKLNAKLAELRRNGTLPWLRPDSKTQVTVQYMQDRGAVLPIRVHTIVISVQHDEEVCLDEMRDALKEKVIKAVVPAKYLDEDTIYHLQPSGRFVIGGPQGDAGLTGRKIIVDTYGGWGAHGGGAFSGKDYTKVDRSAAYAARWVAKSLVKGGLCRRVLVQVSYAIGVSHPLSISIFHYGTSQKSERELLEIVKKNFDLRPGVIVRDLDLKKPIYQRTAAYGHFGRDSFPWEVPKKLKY

Q: With `CNc1ncnc(Nc2[nH]c3c(-c4ccccc4)c(-c4ccccc4)nn3c(=O)c2-c2ccc(OC)cc2)n1` [Compound 135, 6-(4-methoxyphenyl)-5-((4-(methylamino)-1,3,5-triazin-2-yl)amino)-2,3-diphenylpyrazolo[1,5-a]pyrimidin-7(4H)-one] as the compound, how does the IC50 read?
A: The IC50 was less than 100 nM.

Q: How did the IC50 turn out when `COc1ccc(-c2c(Cn3ncnn3)[nH]c3c(-c4ccccc4)c(-c4ccccc4)nn3c2=O)cc1` [Compound 339, 5-((2H-tetrazol-2-yl)methyl)-6-(4-methoxyphenyl)-2,3-diphenylpyrazolo[1,5-a]pyrimidin-7(4H)-one] was run?
A: The IC50 was 100 to 1000 nM.

Q: Which IC50 does the source give for `O=C1CN(Cc2[nH]c3c(-c4ccccc4)c(-c4ccccc4)nn3c(=O)c2-c2ccc3ncccc3c2)C(=O)N1` [Compound 323, 1-((7-oxo-2,3-diphenyl-6-(quinolin-6-yl)-4,7-dihydropyrazolo[1,5-a]pyrimidin-5-yl)methyl)imidazolidine-2,4-dione] here?
A: Its IC50 is 100 to 1000 nM.

Q: With `COc1ccc(-c2c(Nc3ccncc3)[nH]c3c(C4=CCCCC4)c(-c4ccccc4)nn3c2=O)cc1` [Compound 297, 3-(cyclohex-1-en-1-yl)-6-(4-methoxyphenyl)-2-phenyl-5-(pyridin-4-ylamino)pyrazolo[1,5-a]pyrimidin-7(4H)-one] as the compound, how does the IC50 read?
A: Its IC50 is less than 100 nM.

Q: `Cc1[nH]c2c(N3CCCCC3)c(-c3ccccc3)nn2c(=O)c1-c1ccc2nccnc2c1` [Compound 255, 5-methyl-2-phenyl-3-(piperidin-1-yl)-6-(quinoxalin-6-yl)pyrazolo[1,5-a]pyrimidin-7(4H)-one] was tested. Which IC50 did it give?
A: Its IC50 is less than 100 nM.

Q: Which IC50 does the source give for `COc1cc(-c2nn3c(=O)c(-c4ccc5ncccc5c4)c(C)[nH]c3c2-c2ccccc2)ccn1` [Compound 351, 2-(2-methoxypyridin-4-yl)-5-methyl-3-phenyl-6-(quinolin-6-yl)pyrazolo[1,5-a]pyrimidin-7(4H)-one] here?
A: Its IC50 is 1000 to 10000 nM.

Q: For `Cc1[nH]c2c(N3CCCCC3)c(-c3ccccc3)nn2c(=O)c1-c1ccc(O)cc1` [Compound 262, 6-(4-hydroxyphenyl)-5-methyl-2-phenyl-3-(piperidin-1-yl)pyrazolo[1,5-a]pyrimidin-7(4H)-one], which IC50 is on record?
A: Its IC50 is less than 100 nM.

Q: For `COc1ccc(-c2c(Nc3cc(O)ccn3)[nH]c3c(-c4ccccc4)c(-c4ccccc4)nn3c2=O)cc1` [Compound 109, 5-((4-hydroxypyridin-2-yl)amino)-6-(4-methoxyphenyl)-2,3-diphenylpyrazolo[1,5-a]pyrimidin-7(4H)-one], which IC50 is on record?
A: Its IC50 is less than 100 nM.

Q: `COc1ccc(-c2c(Nc3cnncn3)[nH]c3c(-c4ccccc4)c(-c4ccccc4)nn3c2=O)cc1` [Compound 133, 5-((1,2,4-triazin-5-yl)amino)-6-(4-methoxyphenyl)-2,3-diphenylpyrazolo[1,5-a]pyrimidin-7(4H)-one] was tested. Which IC50 did it give?
A: The IC50 was less than 100 nM.

Q: How did the IC50 turn out when `COc1ccc(-c2c(Nc3cn[nH]n3)[nH]c3c(-c4ccccc4)c(-c4ccccc4)nn3c2=O)cc1` [Compound 185, 5-((2H-1,2,3-triazol-4-yl)amino)-6-(4-methoxyphenyl)-2,3-diphenylpyrazolo[1,5-a]pyrimidin-7(4H)-one] was run?
A: The IC50 was less than 100 nM.

Q: Which IC50 does the source give for `COc1ccc(-c2c(Nc3ccncn3)[nH]c3c(-c4ccccc4)c(-c4ccccc4)nn3c2=O)cc1` [Compound 116, 6-(4-methoxyphenyl)-2,3-diphenyl-5-(pyrimidin-4-ylamino)pyrazolo[1,5-a]pyrimidin-7(4H)-one] here?
A: Its IC50 is less than 100 nM.

Q: How did the IC50 turn out when `Cc1[nH]c2c(-c3ccccc3)c(-c3ccccc3)nn2c(=O)c1-c1ccc(O)cc1` [Compound 237, 6-(4-hydroxyphenyl)-5-methyl-2,3-diphenylpyrazolo[1,5-a]pyrimidin-7(4H)-one] was run?
A: Its IC50 is less than 100 nM.

Q: How did the IC50 turn out when `COc1ccc(-c2c(N/C(N)=N/O)[nH]c3c(-c4ccccc4)c(-c4ccccc4)nn3c2=O)cc1` [Compound 200, (E)-2-hydroxy-1-(6-(4-methoxyphenyl)-7-oxo-2,3-diphenyl-4,7-dihydropyrazolo[1,5-a]pyrimidin-5-yl)guanidine] was run?
A: Its IC50 is less than 100 nM.

Q: Which IC50 does the source give for `COc1ccc(-c2c(Nc3nncs3)[nH]c3c(-c4ccccc4)c(-c4ccccc4)nn3c2=O)cc1` [Compound 144, 5-((1,3,4-thiadiazol-2-yl)amino)-6-(4-methoxyphenyl)-2,3-diphenylpyrazolo[1,5-a]pyrimidin-7(4H)-one] here?
A: Its IC50 is less than 100 nM.

Q: With `COc1ccc(-c2c(C)[nH]c3c(-c4cc[nH]c4)c(-c4ccccc4)nn3c2=O)cc1` [Compound 220, 6-(4-methoxyphenyl)-5-methyl-2-phenyl-3-(1H-pyrrol-3-yl)pyrazolo[1,5-a]pyrimidin-7(4H)-one] as the compound, how does the IC50 read?
A: The IC50 was less than 100 nM.

Q: With `O=c1c(-c2ccc3ncccc3c2)c(Nc2ccncn2)[nH]c2c(-c3ccccc3)c(-c3ccccc3)nn12` [Compound 169, 2,3-diphenyl-5-(pyrimidin-4-ylamino)-6-(quinolin-6-yl)pyrazolo[1,5-a]pyrimidin-7(4H)-one] as the compound, how does the IC50 read?
A: Its IC50 is less than 100 nM.

Q: How did the IC50 turn out when `Cc1[nH]c2c(N3CCCCC3)c(-c3ccccc3)nn2c(=O)c1-c1ccc2ncccc2c1` [Compound 206, 5-methyl-2-phenyl-3-(piperidin-1-yl)-6-(quinolin-6-yl)pyrazolo[1,5-a]pyrimidin-7(4H)-one] was run?
A: Its IC50 is less than 100 nM.

Q: Which IC50 does the source give for `COc1ccc(-c2c(Nc3cccc(F)n3)[nH]c3c(-c4ccccc4)c(-c4ccccc4)nn3c2=O)cc1` [Compound 110, 5-((6-fluoropyridin-2-yl)amino)-6-(4-methoxyphenyl)-2,3-diphenylpyrazolo[1,5-a]pyrimidin-7(4H)-one] here?
A: Its IC50 is less than 100 nM.

Q: Which IC50 does the source give for `O=C(NCCO)c1[nH]c2c(-c3ccccc3)c(-c3ccccc3)nn2c(=O)c1-c1ccc2ncccc2c1` [Compound 329, N-(2-hydroxyethyl)-7-oxo-2,3-diphenyl-6-(quinolin-6-yl)-4,7-dihydropyrazolo[1,5-a]pyrimidine-5-carboxamide] here?
A: The IC50 was 100 to 1000 nM.

Q: For `O=C(CO)NCc1[nH]c2c(-c3ccccc3)c(-c3ccccc3)nn2c(=O)c1-c1ccc2ncccc2c1` [Compound 227, 2-hydroxy-N-((7-oxo-2,3-diphenyl-6-(quinolin-6-yl)-4,7-dihydropyrazolo[1,5-a]pyrimidin-5-yl)methyl)acetamide], which IC50 is on record?
A: Its IC50 is less than 100 nM.

Q: How did the IC50 turn out when `Cc1[nH]c2c(C3=CC(O)CCC3)c(-c3ccccc3)nn2c(=O)c1-c1ccc2ncccc2c1` (centres unmarked) [Compound 282] was run?
A: Its IC50 is less than 100 nM.

Q: With `Cc1[nH]c2c(N3CCCCC3)c(-c3ccccc3)nn2c(=O)c1-c1cscn1` [Compound 310, 5-methyl-2-phenyl-3-(piperidin-1-yl)-6-(thiazol-4-yl)pyrazolo[1,5-a]pyrimidin-7(4H)-one] as the compound, how does the IC50 read?
A: Its IC50 is 1000 to 10000 nM.

Q: `CNC(=O)c1[nH]c2c(-c3ccccc3)c(-c3ccccc3)nn2c(=O)c1-c1ccc2ncccc2c1` [Compound 325] was tested. Which IC50 did it give?
A: Its IC50 is 100 to 1000 nM.

Q: `Cc1[nH]c2c(N3CCCCC3)c(-c3ccccc3)nn2c(=O)c1N1CCOCC1` [Compound 302, 5-methyl-6-morpholino-2-phenyl-3-(piperidin-1-yl)pyrazolo[1,5-a]pyrimidin-7(4H)-one] was tested. Which IC50 did it give?
A: The IC50 was 100 to 1000 nM.

Q: Which IC50 does the source give for `Cc1[nH]c2c(C3=CCCCO3)c(-c3ccccc3)nn2c(=O)c1-c1ccc2ncccc2c1` [Compound 217, 3-(3,4-dihydro-2H-pyran-6-yl)-5-methyl-2-phenyl-6-(quinolin-6-yl)pyrazolo[1,5-a]pyrimidin-7(4H)-one] here?
A: The IC50 was less than 100 nM.

Q: For `Cn1c(CO)c(-c2ccc3ncccc3c2)c(=O)n2nc(-c3ccccc3)c(-c3ccccc3)c12` [Compound 281, 5-(hydroxymethyl)-4-methyl-2,3-diphenyl-6-(quinolin-6-yl)pyrazolo[1,5-a]pyrimidin-7(4H)-one], which IC50 is on record?
A: Its IC50 is less than 100 nM.

Q: `COc1ccc(-c2c(Nc3nccnc3O)[nH]c3c(-c4ccccc4)c(-c4ccccc4)nn3c2=O)cc1` [Compound 127, 5-((3-hydroxypyrazin-2-yl)amino)-6-(4-methoxyphenyl)-2,3-diphenylpyrazolo[1,5-a]pyrimidin-7(4H)-one] was tested. Which IC50 did it give?
A: The IC50 was less than 100 nM.

Q: How did the IC50 turn out when `O=c1c(-c2ccc3ncccc3c2)c(Nc2ccon2)[nH]c2c(-c3ccccc3)c(-c3ccccc3)nn12` [Compound 170, 5-(isoxazol-3-ylamino)-2,3-diphenyl-6-(quinolin-6-yl)pyrazolo[1,5-a]pyrimidin-7(4H)-one] was run?
A: The IC50 was less than 100 nM.

Q: Which IC50 does the source give for `COc1ccc(-c2c(C)[nH]c3c(C4=CCOCC4)c(-c4ccccc4)nn3c2=O)cc1` [Compound 218, 3-(3,6-dihydro-2H-pyran-4-yl)-6-(4-methoxyphenyl)-5-methyl-2-phenylpyrazolo[1,5-a]pyrimidin-7(4H)-one] here?
A: The IC50 was less than 100 nM.

Q: With `Cc1[nH]c2c(C3=CCCCC3)c(-c3ccccc3)nn2c(=O)c1-c1ccc(OCOP(=O)(O)O)cc1` [Compound 296, (4-(3-cyclohexenyl-5-methyl-7-oxo-2-phenyl-4,7-dihydropyrazolo[1,5-a]pyrimidin-6-yl)phenoxy)methyl dihydrogen phosphate] as the compound, how does the IC50 read?
A: The IC50 was less than 100 nM.

Q: Which IC50 does the source give for `COc1ccc(-c2c(Nc3ccc(OC)nn3)[nH]c3c(-c4ccccc4)c(-c4ccccc4)nn3c2=O)cc1` [Compound 124, 6-(4-methoxyphenyl)-5-((6-methoxypyridazin-3-yl)amino)-2,3-diphenylpyrazolo[1,5-a]pyrimidin-7(4H)-one] here?
A: The IC50 was less than 100 nM.

Q: How did the IC50 turn out when `Cc1[nH]c2c(N3CCC(F)(F)CC3)c(-c3ccccc3)nn2c(=O)c1-c1ccc2ncccc2c1` [Compound 207, 3-(4,4-difluoropiperidin-1-yl)-5-methyl-2-phenyl-6-(quinolin-6-yl)pyrazolo[1,5-a]pyrimidin-7(4H)-one] was run?
A: Its IC50 is less than 100 nM.

Q: With `Cc1cc(Nc2[nH]c3c(-c4ccccc4)c(-c4ccccc4)nn3c(=O)c2-c2ccc3ncccc3c2)n[nH]1` [Compound 188, 5-((5-methyl-1H-pyrazol-3-yl)amino)-2,3-diphenyl-6-(quinolin-6-yl)pyrazolo[1,5-a]pyrimidin-7(4H)-one] as the compound, how does the IC50 read?
A: Its IC50 is less than 100 nM.

Q: How did the IC50 turn out when `Cc1[nH]c2c(N3CCCCC3)c(-c3ccccc3)nn2c(=O)c1-c1cc[nH]c(=O)c1` [Compound 303, 5-methyl-6-(2-oxo-1,2-dihydropyridin-4-yl)-2-phenyl-3-(piperidin-1-yl)pyrazolo[1,5-a]pyrimidin-7(4H)-one] was run?
A: Its IC50 is 1000 to 10000 nM.

Q: With `COc1ccc(-c2c(Nc3ccon3)[nH]c3c(-c4ccccc4)c(-c4ccccc4)nn3c2=O)cc1` [Compound 138, 5-(isoxazol-3-ylamino)-6-(4-methoxyphenyl)-2,3-diphenylpyrazolo[1,5-a]pyrimidin-7(4H)-one] as the compound, how does the IC50 read?
A: Its IC50 is less than 100 nM.

— patent US10800782B2, “Inhibitors of cellular metabolic processes” (Agios Pharmaceuticals, Inc., priority 2016, dated 2020)
